Patent publication US8008329B2 (Dong Wha Pharmaceutical Co., Ltd., priority 2008, dated 2011)
Where “and” joins values, the source holds several entries; their conditions need not be identical. Identical values can stand only once. Marks after values point to notes of the source that are not given here.

Assays:
[1] = test system: osteoclast differentiation; experiment: Osteoclast differentiation in co-culture of mouse bone marrow cells and calvarial osteoblasts, TRAP staining (Examples 1-7); assay type: cell-based; conditions: day 7
[2] = test system: osteoclast differentiation; experiment: Osteoclast differentiation in co-culture of mouse bone marrow cells and ST2 cells, TRAP staining (Examples 8-9); assay type: cell-based; conditions: for % number of osteoclast (vs. solvent control group): day 7; for activity at 0.1 µM: Mus musculus, Osteoclast, 168 h, day 7, read-out: % number of osteoclast (vs. solvent control group)
In short: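 Bone marrow cells from 6-8-week male ddY mice were co-cultured with ST2 stromal cells under 10^−8 M vitamin D3 and 10^−8 M dexamethasone, with compounds at 0.1 μM final (0.1% DMSO control), refreshed on days 3 and 5. On day 7, TRAP-positive osteoclasts with ≥6 nuclei were counted and expressed as % of solvent control (n=4).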

[3] = Mus musculus, Osteoclast, 168 h, individual treatment of Compound (0.1 μM), read-out: % number of osteoclast (vs. solvent control group)
[4] = combination treatment of alendronic acid (0.2 μM) with compound (0.1 μM)
[5] = combination treatment of clodronic acid (1 μM) with compound (0.1 μM)
[6] = combination treatment of etidronic acid (2 μM) with compound (0.1 μM)
[7] = combination treatment of ibandronic acid (0.1 μM) with compound (0.1 μM)
[8] = combination treatment of pamidronic acid (0.1 μM) with compound (0.1 μM)
[9] = combination treatment of risedronic acid (0.1 μM) with compound (0.1 μM)
[10] = combination treatment of zoledronic acid (0.01 μM) with compound (0.1 μM)
[11] = individual treatment of Compound (0.1 μM)
[12] = Combination treatment (alendronic acid + compounds), 0.1 μM each
[13] = Combination treatment (risedronic acid + compounds), 0.1 μM each
[14] = Individual treatment (compounds), 0.1 μM
[15] = singly treated with 0.1 μM alendronic acid
[16] = singly treated with 0.1 μM risedronic acid

| SMILES | activity at 0.1 µM [1, 3] | % number of osteoclast (vs. solvent control group) [1, 4] | % number of osteoclast (vs. solvent control group) [1, 5] | % number of osteoclast (vs. solvent control group) [1, 6] | % number of osteoclast (vs. solvent control group) [1, 7] | % number of osteoclast (vs. solvent control group) [1, 8] | % number of osteoclast (vs. solvent control group) [1, 9] | % number of osteoclast (vs. solvent control group) [1, 10] | % number of osteoclast (vs. solvent control group) [1, 11] | also measured |
| --- | --- | --- | --- | --- | --- | --- | --- | --- | --- | --- |
| CN(CCN1CCOCC1)c1nc(-c2ccc(OCCCCCOc3ccc(C(=N)NO)cc3)cc2)cs1 [Compound 119, N-hydroxy-4-[5-(4-{2-[methyl-(2-morpholinoethyl)amino]-1,3-thiazol-4-yl}phenoxy)pentyloxy]-benzamidine] | 66% | 29% and 29 ± 5.3*^#@ % | 47% and 47 ± 13.0*^#@ % | 38% and 38 ± 8.2*^#@ % | 36 ± 9.8*^#@ % | 37% and 37 ± 5.0*^#@ % | 38% and 38 ± 6.8*^#@ % | 42 ± 8.1*^#@ % | 66 ± 8.3 % | % number of osteoclast (vs. solvent control group) [2, 12]: 29 ± 4.9^ab %; % number of osteoclast (vs. solvent control group) [2, 13]: 29 ± 8.7^ac %; activity at 0.1 µM [2, 14]: 78 ± 9% |
| CCCN(CCC)c1nc(-c2ccc(OCCCCCOc3ccc(C(=N)NO)cc3)cc2)c(CC)s1 [Compound 138, N-hydroxy-4-{5-[4-(2-dipropylamino-5-ethyl-1,3-thiazol-4-yl)phenoxy]pentyloxy}-benzamidine] | 71% | 32% and 32 ± 8.9*^#@ % | 54 ± 11.9*^#@ % | 40% and 40 ± 8.4*^#@ % | 45 ± 7.6*^#@ % | 42% and 42 ± 6.2*^#@ % | 35% and 35 ± 8.2*^#@ % | 48 ± 8.9*^#@ % | 71 ± 6.5 % | % number of osteoclast (vs. solvent control group) [2, 12]: 18 ± 6.8^ab %; % number of osteoclast (vs. solvent control group) [2, 13]: 31 ± 3.2^ac %; activity at 0.1 µM [2, 14]: 57 ± 7.2% |
| Cc1nc(-c2ccc(OCCCCCOc3ccc(C(=N)NO)c(F)c3)cc2)c(C(C)C)s1 [Compound 187, N-hydroxy-2-fluoro-4-{5-[4-(5-isopropyl-2-methyl-1,3-thiazol-4-yl)-phenoxy]-pentyloxy}-benzamidine] | 67% | 32% and 32 ± 8.1*^#@ % | 60 ± 15.2*^#@ % | 41% and 41 ± 7.5*^#@ % | 42% and 42 ± 8.1*^#@ % | 47% and 47 ± 10.5*^#@ % | 40% and 40 ± 6.6*^#@ % | 43% and 43 ± 4.5*^#@ % | 67% and 67 ± 7.4 % | – |
| NCCCC(O)(P(=O)(O)O)P(=O)(O)O [alendronic acid, reference compound] | – | – | – | – | – | – | – | – | – | activity at 0.2 µM ([1]; Mus musculus, Osteoclast, 168 h, individual treatment of alendronic acid (0.2 μM), read-out: % number of osteoclast (vs. solvent control group)): 80%; % number of osteoclast (vs. solvent control group) ([1]; individual treatment of alendronic acid (0.2 μM)): 80 ± 5.7 %; activity at 0.1 µM [2, 15]: 76%; % number of osteoclast (vs. solvent control group) [2, 15]: 76 ± 6.2 % |
| O=P(O)(O)C(Cl)(Cl)P(=O)(O)O [clodronic acid, reference compound] | – | – | – | – | – | – | – | – | – | activity at 1 µM ([1]; Mus musculus, Osteoclast, 168 h, individual treatment of clodronic acid (1 μM), read-out: % number of osteoclast (vs. solvent control group)): 88%; % number of osteoclast (vs. solvent control group) ([1]; individual treatment of clodronic acid (1 μM)): 88 ± 9.7 % |
| CC(O)(P(=O)(O)O)P(=O)(O)O [etidronic acid, reference compound] | – | – | – | – | – | – | – | – | – | activity at 2 µM ([1]; Mus musculus, Osteoclast, 168 h, individual treatment of etidronic acid (2 μM), read-out: % number of osteoclast (vs. solvent control group)): 86%; % number of osteoclast (vs. solvent control group) ([1]; individual treatment of etidronic acid (2 μM)): 86 ± 6.9 % |
| CCCCCN(C)CCC(O)(P(=O)(O)O)P(=O)(O)O [ibandronic acid, reference compound] | – | – | – | – | – | – | – | – | – | activity at 0.1 µM ([1]; Mus musculus, Osteoclast, 168 h, individual treatment of ibandronic acid (0.1 μM), read-out: % number of osteoclast (vs. solvent control group)): 77%; % number of osteoclast (vs. solvent control group) ([1]; individual treatment of ibandronic acid (0.1 μM)): 77 ± 8.2 % |
| NCCC(O)(P(=O)(O)O)P(=O)(O)O [pamidronic acid, reference compound] | – | – | – | – | – | – | – | – | – | activity at 0.1 µM ([1]; Mus musculus, Osteoclast, 168 h, individual treatment of pamidronic acid (0.1 μM), read-out: % number of osteoclast (vs. solvent control group)): 82%; % number of osteoclast (vs. solvent control group) ([1]; individual treatment of pamidronic acid (0.1 μM)): 82 ± 6.7 % |
| O=P(O)(O)C(O)(Cc1cccnc1)P(=O)(O)O [risedronic acid, reference compound] | – | – | – | – | – | – | – | – | – | activity at 0.1 µM ([1]; Mus musculus, Osteoclast, 168 h, individual treatment of risedronic acid (0.1 μM), read-out: % number of osteoclast (vs. solvent control group)): ~82%; % number of osteoclast (vs. solvent control group) ([1]; individual treatment of risedronic acid (0.1 μM)): 82 ± 5.2 %; activity at 0.1 µM [2, 16]: 69%; % number of osteoclast (vs. solvent control group) [2, 16]: 69 ± 6.7 % |
| O=P(O)(O)C(O)(Cn1ccnc1)P(=O)(O)O [zoledronic acid, reference compound] | – | – | – | – | – | – | – | – | – | activity at 0.01 µM ([1]; Mus musculus, Osteoclast, 168 h, individual treatment of zoledronic acid (0.01 μM), read-out: % number of osteoclast (vs. solvent control group)): 84%; % number of osteoclast (vs. solvent control group) ([1]; individual treatment of zoledronic acid (0.01 μM)): 84 ± 4.1 % |
